Laboratory results taken from EP0555681A1, “Use of a combination of potassium channel activators and sulfhydryl containing compounds for the manufacture of a medicament for the treatment of ischemia and myocarolial infarct” (E.R. SQUIBB & SONS, INC., priority 1992, dated 1993).
Read-outs that look alike come from different tables or passages of the source.

Legend:
Parameters in all cases: species or system Male Sprague-Dawley rats
isolated rat hearts [1] = test: Global ischemia and reperfusion in isolated perfused (Langendorff) rat hearts: EDP, LDH release, double product
Description: anesthetized using 100 mg/kg sodium pentobarbital (i.p.). They were intubated and then treated with i.v. heparin (1000 U/kg). While mechanically ventilated, hearts were perfused in situ via retrograde cannulation of the aorta. […] A water-filled latex balloon, attached to a metal cannula, was inserted into the left ventricle and connected to a Statham pressure transducer for measurement of left ventricular pressure. The hearts were allowed to equilibrate for 15 minutes, at which time end diastolic pressure (EDP) was adjusted to 5 mm Hg and the balloon pressure was maintained for the duration of the experiment. Pre-ischemia or pre-drug function, heart rate and coronary flow (extracorporeal electromagnetic flow probe, Carolina Medical Electronics, King, N.C.) were then measured. Cardiac function was determined using double product of heart rate (HR) X left ventricular developed pressure (LVDP) divided by 1000. Cardiac temperature was maintained throughout the experiment by submerging the hearts in a heated chamber filled with 37°C buffer. All hearts were retreated with vehicle or drug for 10 minutes before the onset of ischemia. All drugs were given only before ischemia. The hearts were subjected to 25 minutes of global ischemia and 30 minutes of reperfusion. At the end of the experiment, EDP and LDH release were measured and used as an index of severity of ischemia.

isolated rat hearts [2] = test: as above; settings: 100 or 300 µM N-acetylcysteine; 30 minutes into reperfusion following 35 minutes of global ischemia (Fig. 3a, 3b)
isolated rat hearts [3] = test: Time to contracture during global ischemia in isolated rat hearts, with isobolographic analysis of the combination; settings: read-out: EC₅₀ for percentage change in time to contracture
Description: anesthetized using 100 mg/kg sodium pentobarbital (i.p.). They were intubated and then treated with i.v. heparin (1000 U/kg). While mechanically ventilated, hearts were perfused in situ via retrograde cannulation of the aorta. The hearts were then excised and quickly moved to a Langendorff apparatus where they were perfused with Krebs-Henseleit bicarbonate buffer (112 mM sodium chloride, 25 mM sodium bicarbonate, 5 mM potassium chloride, 1.2 mM magnesium sulfate, 1 mM potassium […], 1.25 mM calcium chloride, 11.5 mM glucose and 2mM pyruvate bubbled with 95% oxygen - 5% carbon dioxide) at a constant perfusion pressure (75 mm Hg). A water-filled latex balloon, attached to a metal cannula, was inserted into the left ventricle and connected to a Statham pressure transducer for measurement of left ventricular pressure. The hearts were allowed to equilibrate for 15 minutes, at which time end diastolic pressure (EDP) was adjusted to 5 mm Hg and the balloon pressure was maintained for the duration of the experiment. Pre-ischemia or pre-drug function, heart rate and coronary flow (extracorporeal electromagnetic flow probe, Carolina Medical Electronics, King, N.C.) were then measured. Cardiac function was determined using double product of heart rate (HR) X left ventricular developed pressure (LVDP) divided by 1000. Cardiac temperature was maintained throughout the experiment by submerging the hearts in a heated chamber filled with 37°C buffer.
All hearts were retreated with vehicle or drug for 10 minutes before the onset of ischemia. All drugs were given only before ischemia. The hearts were subjected to 25 minutes of global ischemia and 30 minutes of reperfusion. At the end of the experiment, EDP and LDH release were measured and used as an index of severity of ischemia.
The effect of the combination of a potassium channel activator and a sulfhydryl containing compound was determined using a technique known as isobolographic analysis (R. J. Tallarida et al, "Minireview-Satistical Analysis of Drug-Drug and Site-Site Interactions with Isobolograms", Life Sciences, 45:947-961, 1989). This technique is commonly used to investigate the interaction between drugs.
Several specific concentration ratios (3:1, 12:1 and 30:1) of cromakalim to zofenopril respectively were tested and the effects of the combination determined. The concentration response curves for cromakalim and zofenopril were expressed as percentage increase in time to contracture from control. Time to contracture was measured as the time during ischemia for end diastolic pressure to increase by 5 mm Hg.
EC₅₀ for percentage change in time to contracture for cromakalim and zofenopril given alone or in the concentration ratios indicated were calculated.

[4] = given alone, time during ischemia for EDP to increase by 5 mm Hg
[5] = blocker (1 µM glyburide or 100 µM sodium 5-hydroxydecanoate) given with zofenopril prodrug (Fig. 1a)
[6] = blocker (1 µM glyburide or 100 µM sodium 5-hydroxydecanoate) given with zofenopril prodrug (Fig. 1b)

CC(C)(S)[C@@H](N)C(=O)O [Penicillamine]
protection of cardiac tissue (isolated rat hearts [1]; penicillamine (Fig. 4a, 4b)): protects cardiac tissue
LDH release (isolated rat hearts [1]; penicillamine (Fig. 4b)): significantly reduced
reperfusion double product (isolated rat hearts [1]; penicillamine, HR x LVDP divided by 1000 (Fig. 4a)): significantly improved

CC(=O)N[C@@H](CS)C(=O)O [N-acetyl-cysteine, N-acetylcysteine]
protection of ischemic cardiac tissue (EDP and cumulative LDH release) (isolated rat hearts [2]): protected ischemic cardiac tissue

CC1(C)Oc2ccc(C#N)cc2C(N2CCCC2=O)C1O (racemic) [Cromakalim, (±)-6-cyano-3,4-dihydro-2,2-dimethyl-trans-4-(2-oxo-1-pyrrolidyl)-2H-benzo[6]-pyran-3-ol]
EC50 (isolated rat hearts [3]; concentration ratio 3:1 cromakalim to zofenopril, cromakalim component): 5.15 µM
EC50 (isolated rat hearts [3]; concentration ratio 12:1 cromakalim to zofenopril, cromakalim component): 5.96 µM
EC50 (isolated rat hearts [3]; concentration ratio 30:1 cromakalim to zofenopril, cromakalim component): 9.3 µM
EC50 (isolated rat hearts [3]; [4]): 39.7 µM

CCCCCC(O)CCCC(=O)[O-].[Na+] (stereo not shown) [sodium-5-hydroxy-decanoate, sodium 5-hydroxydecanoate]
end diastolic pressure (EDP) (isolated rat hearts [1]; [5]): increase
cumulative LDH release (isolated rat hearts [1]; [6]): increase

COc1ccc(Cl)cc1C(=O)NCCc1ccc(S(=O)(=O)NC(=O)NC2CCCCC2)cc1 [Glyburide]
reversal of the cardioprotective effect of zofenopril-SH (isolated rat hearts [1]; 1 µM glyburide with 400 µM zofenopril-SH (Fig. 2a, 2b)): reverses the cardioprotective effect
reversal of the protective effect of N-acetylcysteine (isolated rat hearts [1]; 1 µM glyburide with N-acetylcysteine (Fig. 3a, 3b)): reversed
end diastolic pressure (EDP) (isolated rat hearts [1]; [5]): increase
cumulative LDH release (isolated rat hearts [1]; [6]): increase
reversal of the effects of penicillamine on double product and LDH release (isolated rat hearts [1]; glyburide with penicillamine (Fig. 4a, 4b)): partially reversed

C[C@H](CS)C(=O)N1C[C@@H](Sc2ccccc2)C[C@H]1C(=O)O [free-SH form of zofenopril]
cardioprotective effect (EDP and cumulative LDH release) (isolated rat hearts [1]; 400 µM zofenopril-SH, 30 minutes into reperfusion following 25 minutes of global ischemia (Fig. 2a, 2b)): cardioprotective effect

C[C@H](CSC(=O)c1ccccc1)C(=O)N1C[C@@H](Sc2ccccc2)C[C@H]1C(=O)O [Zofenopril]
end diastolic pressure (EDP) (isolated rat hearts [1]; 100 µM zofenopril, 30 minutes into reperfusion following 25 minutes of global ischemia (Fig. 1a)): significantly reduced
cumulative LDH release (isolated rat hearts [1]; 100 µM zofenopril, 30 minutes into reperfusion following 25 minutes of global ischemia (Fig. 1b)): significantly reduced
EC50 (isolated rat hearts [3]; concentration ratio 3:1 cromakalim to zofenopril, zofenopril component): 0.128 µM
EC50 (isolated rat hearts [3]; concentration ratio 12:1 cromakalim to zofenopril, zofenopril component): 0.48 µM
EC50 (isolated rat hearts [3]; concentration ratio 30:1 cromakalim to zofenopril, zofenopril component): 0.29 µM
EC50 (isolated rat hearts [3]; [4]): 75 µM
